In patent US9303017B2, “2,5-disubstituted-pyridyl nicotinic ligands, and methods of use thereof” (Georgetown University, priority 2011, dated 2016):

Test system: alcohol preferring rats (P rats)
Assay: Alcohol intake in alcohol preferring rats
Type: in vivo, rat
Procedure: In Vivo Effects on Alcohol Intake in Rats. In our initial behavioral studies in an animal model, effects of compound (S)-15 (Scheme 1, YL-1-127) on alcohol self-administration in alcohol preferring rats (P rats) were assessed. Three doses of (S)-15 were tested: 0.33, 1 and 3 mg/kg (s.c.).
General Procedures for Effect on Alcohol Intake in Rats. Adult male rats obtained from a colony of selectively-bred alcohol preferring rats (P rats) maintained at Indiana University School of Medicine. Rats were housed in cages that were fitted with two 100 mL Richter tubes for the recording of water and alcohol intake. Animals were kept under a constant room temperature of 22±1° C. and 12:12 light-dark cycle (7:00 a.m.-7:00 p.m. dark). Animals were fed 5001 Rodent Chow (Lab Diet, Brentwood, Mo., USA). All procedures were approved by the IACUC at Duke University Medical Center.
After a week of handling and habituation, rats were given free access to water in a graduated Richter tube for 1 day. Next, they were given free access only to a solution of 10% (v/v) alcohol for 3 consecutive days. Thereafter, rats were given free access to water and a solution of alcohol throughout the study. Water and alcohol intake were indexed by graduated Richter drinking tubes.
An acute study was conducted to determine a dose-response for compound (S)-15 (YL-1-127). After the establishment of a stable baseline for alcohol and water intake rats were injected subcutaneously with 0.33, 1 and 3 mg/kg of YL-1-127 or the same volume of the vehicle ([…]). Alcohol and water intake were measured at, 2, 4, 6 and 24 hr after the drug administration. The preference for alcohol solution, [(alcohol volume)/(alcohol+water volume)×100], was calculated for the same time points as alcohol and water intake. All animals (n=18) received all treatments following a crossover design with random assignment. The interval between injections was at least 3 days.
Solution of 10% (v/v) alcohol was prepared twice weekly from a solution of […] mixed with tap water. Solutions of YL-1-127 was prepared weekly in 100 mM HCl solution and isotonic saline and was injected subcutaneously in a volume of 1 mL/kg.
The data were assessed by the analysis of variance with a between subjects factor of strain and a repeated measures factor of YL-1-127 dose. Significance was determined at p

Compound: CCCCC#Cc1cnc(C)c(OC[C@@H]2CCN2)c1 [(S)-15, (S)-3-(azetidin-2-ylmethoxy)-5-(hex-1-ynyl)-2-methylpyridine]
- alcohol intake (1 mg/kg s.c., 24 h, p<0.05): reduced alcohol intake significantly
- alcohol intake (3 mg/kg s.c., 6 h, p<0.05): significant effects
- alcohol intake (3 mg/kg s.c., 24 h, p<0.0005): significant effects
- alcohol intake (0.33, 1 and 3 mg/kg s.c., compared with control vehicle): significantly reduced alcohol intake in a dose dependent manner
